Test results: article PMC9821907, “Synthesis and Antiprotozoal Activity of Azabicyclo-Nonane Pyrimidine Hybrids” (Molecules, 2022)
Where two headings read alike, the source gives them in different places.

What was measured:
[1] = tested on: P. falciparum NF54; assay: In vitro microplate 3H-hypoxanthine incorporation assay against P. falciparum NF54; type: cell-based; details: Plasmodium falciparum; NF54 strain, sensitive to chloroquine and pyrimethamine; average of four determinations; read-out: P. falciparum NF54 IC50
Protocol: (§1) Compounds were tested for their activities against Plasmodium falciparum NF54 (sensitive to chloroquine) and Trypanosoma brucei rhodesiense STIB900, via serial dilution assays. Furthermore, selected compounds were tested against the K1 strain of Plasmodium falciparum (resistant against chloroquine, sulfadoxine and pyrimethamine). Their cytotoxicity was determined with rat skeletal myoblasts (L-6 cells).
(§2) In vitro activity against erythrocytic stages of P. falciparum was determined using a ^3H-hypoxanthine incorporation assay using the drug sensitive NF54 strain [27] or the chloroquine- and pyrimethamine-resistant K1 strain [28]. Compounds were dissolved in DMSO at 10 mg/mL and further diluted in medium before being added to parasite cultures incubated in RPMI 1640 medium without hypoxanthine, supplemented with HEPES (5.94 g/L), NaHCO3 (2.1 g/L), neomycin (100 U/mL), Albumax® (5 g/L) and washed human red cells A+ at 2.5% haematocrit (0.3% parasitaemia). Serial drug dilutions of eleven 3-fold dilution steps covering a range from 100 to 0.002 μg/mL were prepared. The 96-well plates were incubated in a humidified atmosphere at 37 °C; 4% CO2, 3% O2, 93% N2. After 48 h, 0.05 mL of ^3H-hypoxanthine (= 0.5 μCi) was added to each well of the plate. The plates were incubated for a further 24 h under the same conditions. The plates were then harvested with a Betaplate™ cell harvester (Wallac, Zurich, Switzerland), and the red blood cells transferred onto a glass fibre filter then washed with distilled water. The dried filters were inserted into a plastic foil with 10 mL of scintillation fluid, and counted in a Betaplate™ liquid scintillation counter (Wallac, Zurich, Switzerland). IC50 values were calculated from sigmoidal inhibition curves by linear regression using Microsoft Excel. Chloroquine (Sigma C6628) was used as control.

[2] = in vitro; details: rat
Protocol: as §1
Assays were performed in 96-well microtiter plates, each well containing 0.1 mL of RPMI 1640 medium supplemented with 1% L-glutamine (200 mM) and 10% fetal bovine serum, and 4000 L-6 cells (a primary cell line derived from rat skeletal myoblasts, ATCC CRL-1458™). Serial drug dilutions of eleven 3-fold dilution steps covering a range from 100 to 0.002 μg/mL were prepared. After 70 h of incubation the plates were inspected under an inverted microscope to assure growth of the controls and sterile conditions. Then, 0.01 mL resazurin solution (resazurin, 12.5 mg in 100 mL double-distilled water) was added to each well and the plates incubated for another 2 h. The plates were read with a Spectramax Gemini XS microplate fluorometer (Molecular Devices Cooperation, Sunnyvale, CA, USA) using an excitation wave length of 536 nm and an emission wave length of 588 nm. The IC50 values were calculated by linear regression from the sigmoidal dose inhibition curves using SoftmaxPro software (Molecular Devices Cooperation, Sunnyvale, CA, USA). Podophyllotoxin (Sigma P4405) was used as control.

[3] = tested on: T. brucei rhodesiense STIB900; assay: In vitro microplate resazurin assay against T. brucei rhodesiense; type: cell-based; details: Trypanosoma brucei; bloodstream forms; average of four determinations; read-out: T. brucei rhodesiense STIB900 IC50
Protocol: as §1
Minimum essential medium (50 µL) supplemented with 25 mM HEPES, 1g/L additional glucose, 1% MEM non-essential amino acids (100×), 0.2 mM 2-mercaptoethanol, 1mM Na-pyruvate and 15% heat-inactivated horse serum was added to each well of a 96-well microtiter plate. Serial drug dilutions of eleven 3-fold dilution steps covering a range from 100 to 0.002 μg/mL were prepared. Then 4 × 10^3 bloodstream forms of T. b. rhodesiense STIB 900 in 50 µL was added to each well and the plate incubated at 37 °C under a 5 % CO2 atmosphere for 70 h. Next, 10 µL resazurin solution (resazurin, 12.5 mg in 100 mL double-distilled water) was added to each well and incubation continued for a further 2–4 h. Then the plates were read with a Spectramax Gemini XS microplate fluorometer (Molecular Devices Cooperation, Sunnyvale, CA, USA) using an excitation wave length of 536 nm and an emission wave length of 588 nm. Data were analyzed with the graphic programme Softmax Pro (Molecular Devices Cooperation, Sunnyvale, CA, USA), which calculated IC50 values by linear regression and 4-parameter logistic regression from the sigmoidal dose inhibition curves. Melarsoprol (Arsobal Sanofi-Aventis, received from WHO) was used as control.

[4] = tested on: P. falciparum K1; assay: In vitro microplate 3H-hypoxanthine incorporation assay against P. falciparum K1; type: cell-based, Plasmodium falciparum; details: resistant to chloroquine, sulfadoxine and pyrimethamine, average of four determinations, read-out: P. falciparum K1 IC50
Protocol: as §1, §2

[5] = Plasmodium falciparum, K1, K1 strain

| Structure (SMILES) | IC50 [1] [nM] | IC50 at 72 h [2] [nM] | IC50 [3] [nM] | IC50 [4, 5] [nM] | IC50 ([4]; K1 strain) [nM] |
| --- | --- | --- | --- | --- | --- |
| Cc1cc(N2CCC3(N4CCCCC4)CC(c4ccccc4)C2C(c2ccccc2)C3)nc(N)n1 (racemic) [Compound 5, rac-4-[(7R,8R)-7,8-diphenyl-5-(piperidin-1-yl)-2-azabicyclo[3.2.2]nonan-2-yl]-6-methylpyrimidin-2-amine] | 212 ± 12 | 10600 ± 1940 | 3310 ± 235 | 140 ± 33 |  |
| Cc1cc(N2CCC3(N4CCCC4)CC(c4ccccc4)C2C(c2ccccc2)C3)nc(N)n1 (racemic) [Compound 6, rac-4-[(7R,8R)-7,8-diphenyl-5-(pyrrolidin-1-yl)-2-azabicyclo[3.2.2]nonan-2-yl]-6-methylpyrimidin-2-amine] | 88 ± 57 | 12500 ± 3310 | 161 |  |  |
| Cc1cc(N2CC3C(c4ccccc4)CC(N4CCCCC4)(CC3c3ccccc3)C2)nc(N)n1 (racemic) [Compound 7] | 24 ± 4 | 8000 ± 1890 | 573 ± 132 | 51 to 94 | 51 ± 24 |
| Cc1cc(N2CC3C(c4ccccc4)CC(N4CCCC4)(CC3c3ccccc3)C2)nc(N)n1 (racemic) [Compound 8] | 62 ± 1 | 4480 ± 1440 | 322 ± 151 |  |  |
| Nc1cc(N2CCC3(N4CCCCC4)CC(c4ccccc4)C2C(c2ccccc2)C3)nc(N)n1 (racemic) [Compound 9, rac-6-[(7R,8R)-7,8-diphenyl-5-(piperidin-1-yl)-2-azabicyclo[3.2.2]nonan-2-yl]pyrimidine-2,4-diamine] | 51 ± 7 | 9730 ± 661 | 1560 ± 643 | 51 to 94 | 94 ± 4 |
| Nc1cc(N2CC3C(c4ccccc4)CC(N4CCCCC4)(CC3c3ccccc3)C2)nc(N)n1 (racemic) [Compound 11] | 23 ± 1 | 4330 ± 235 | 201 ± 39 | 87 ± 2 |  |
| Nc1cc(N2CC3C(c4ccccc4)CC(N4CCCC4)(CC3c3ccccc3)C2)nc(N)n1 (racemic) [Compound 12] | 33 ± 16 | 11100 ± 836 | 946 ± 374 | 172 ± 51 |  |

More lines, main results first:

| IC50 [1] [nM] | IC50 at 72 h [2] [nM] | IC50 [3] [nM] | IC50 [4, 5] [nM] | Structure (SMILES) | IC50 ([4]; K1 strain) [nM] |
| --- | --- | --- | --- | --- | --- |
| 79 ± 1 | 11260 ± 33 | 853 ± 16 | 216 ± 37 | Nc1cc(N2CCC3(N4CCCC4)CC(c4ccccc4)C2C(c2ccccc2)C3)nc(N)n1 (racemic) [Compound 10, rac-6-[(7R,8R)-7,8-diphenyl-5-(pyrrolidin-1-yl)-2-azabicyclo[3.2.2]nonan-2-yl]pyrimidine-2,4-diamine] |  |
| 694 ± 18 | 3100 ± 51 | 1550 ± 47 | 567 ± 47 | Cc1cc(N2CCC3(N4CCCCC4)C[C@H](c4ccccc4)C2[C@@H](c2ccccc2)C3)nc(Cl)n1 (racemic) [Compound 13, rac-(7R,8R)-2-(2-chloro-6-methylpyrimidin-4-yl)-7,8-diphenyl-5-(piperidin-1-yl)-2-azabicyclo[3.2.2]nonane] |  |
| 1040 ± 302 | 9620 ± 1100 | 1640 ± 22 | 366 ± 95 | Cc1cc(N2CCC3(N4CCCC4)C[C@H](c4ccccc4)C2[C@@H](c2ccccc2)C3)nc(Cl)n1 (racemic) [Compound 14, rac-(7R,8R)-2-(2-chloro-6-methylpyrimidin-4-yl)-7,8-diphenyl-5-(pyrrolidin-1-yl)-2-azabicyclo[3.2.2]nonane] |  |
